According to patent US7678884B2, “Biologically active peptide and agent containing the same” (Seikagaku Corporation, priority 2003, dated 2010):
Ends that are not written are not given here.

What was measured:
ST2 cells = assay: Cell differentiation of ST2 cells (ALP activity); format: cell-based, mouse; settings: for cell differentiation promoting effect on ST2 cells relative to BMP2: at confluent state (FIG. 7), comparison with BMP2; for cell differentiation promoting effect (ALP activity) on ST2 cells: at confluent state, αMEM containing 2% FBS (FIG. 7)
Protocol: (§1) As mouse-derived osteoblasts, cells of the MC3T3 cell strain or ST2 cell strain (purchased from Riken Cell Bank) were used. • (iii) Rat Femur Bone Marrow-derived Mesenchymal Stem Cells (BMMSC)
(§2) As an index of cell differentiation, alkaline phosphatase (ALP) activity of cells was determined. Cells were inoculated in a 24-well culture plate at a ratio of 5×10^3 cells/well, added with the peptide (a) at various concentrations and cultured in DMEM or αMEM containing 2% FBS. One week after the time point when the cells reached a confluent state, ALP activity was determined by the following enzymochemical method (Bessey-Lowry method, Bessey O A, Lowry O H and Brock M J, A method for the rapid determination of alkaline phosphatase with five cubic millimeter of serum, J. Biol. Chem., 164:321-329, 1946).
(§3) The cultured cells were washed with PBS and then disrupted in 10 mM Tris-HCl buffer (pH 7.4, 500 μl) for 40 seconds by using an ultrasonic homogenizer (Handy Sonic model UR-20P, Tomy Seiko) and stirred. Then, 25 μl of this sample liquid was added to 125 μl of ALP buffer (0.1 M carbonate buffer, pH 9.8, 6.7 mM p-nitrophenyl phosphate, 2 mM MgCl2) and incubated at 37° C. for 30 minutes. The reaction was terminated by addition of 125 μl of 0.2 N NaOH, and absorbance was measured at 405 nm by using a microplate reader (Model 550, Bio-Rad Laboratories).
(§4) Further, the peptides (a) and (b) and BMP2 were similarly examined by using the ST2 cells and BMMSC cells. The symbol “cont” in the figures indicates the results for the cells cultured in αMEM containing 2% FBS alone, “B” indicates the results for the cells cultured in the medium added only with BMP2, “HN” indicates the results for the cells cultured in the medium added only with the peptide (b), and “PN” indicates the results for the cells cultured in the medium added only with the peptide (a). In the figures, the unit of numerical values shown after “B,” “HN” and “PN” is “ng/ml.”
Further, the peptides (b) and (k) to (n) were similarly examined at a final concentration of 100 ng/ml by using the ST2 cell strain. The symbol “cont” in the figure indicates the results for the cells cultured in DMEM containing 2% FBS alone.

[1] = tested on: Rat femur bone marrow-derived mesenchymal stem cells (BMMSC); assay: Cell differentiation of BMMSC cells (ALP activity); format: cell-based; settings: for cell differentiation promoting effect on BMSSC cells relative to BMP2: at confluent state (FIG. 8), comparison with BMP2; for cell differentiation promoting effect (ALP activity) on BMSSC cells: at confluent state, αMEM containing 2% FBS (FIG. 8)
Excerpt: Rat femur bone marrow-derived mesenchymal stem cells (BMMSC) were used. The cell strain of the cells was obtained according to the method of Maniatopoulos et al. (Maniatopoulos C, Sodek J and Melcher A H, Bone formation in vitro by stromal cells obtained from bone marrow of young adult rats, Cell Tissue Res., 254: 317-330, 1988). The femur was aseptically extracted, and surrounding soft tissue was removed as far as possible. The mesiodistal epiphysis of the femur was cut off, and the femur marrow tissue in 5 ml of 15S-containing minimum essential medium alpha medium (αMEM, GIBCO) was injected into 10 ml of the same culture broth by using a syringe. The obtained tissue was cultured in the 15S-containing αMEM at 37° C., and the 3rd to 5th generation cells were used for experiments. • (iv) Mouse-derived Cementoblasts
as §2, §3, §4

MC3T3 cells [2] = assay: Cell differentiation of MC3T3 cells (ALP activity); format: cell-based, mouse; settings: for cell differentiation promoting effect (ALP activity) on MC3T3 cells: at confluent state and one week after (FIG. 9, FIG. 10)
Protocol: as §1, §2, §3
Further, the peptides (a) and (b) were similarly examined by using the MC3T3 cells. ALP activity determined when the cells reached a confluent state is shown in FIG. 9, and ALP activity determined one week after the confluent state was attained is shown in FIG. 10. The symbol “cont” in the figures indicates the results for the cells cultured in αMEM containing 2% FBS alone, “PN” indicates the results for the cells cultured in the medium added only with the peptide (a), and “HN” indicates the results for the cells cultured in the medium added only with the peptide (b). Further, “ng” in the figures represents “ng/ml.” […]

PDL cells = assay: Calcification product forming ability of PDL cells (Dahl's calcium staining, alizarin red S); format: cell-based, human; settings: peptide at various concentrations, 10 mM sodium β-glycerophosphate, three weeks after confluent state
Protocol: The following experiment was performed to examine effect of the peptide on calcification product forming ability of cells.
To assess calcification ability of cells, Dahl's calcium staining was performed. The PDL cells were inoculated on a 24-well culture plate at a ratio of 5×10^3 cells/well, and cultured in 2S-containing DMEM added with the peptide (a) or (c) at various concentrations and adjusted by addition of 10 mM sodium β-glycerophosphate. Three weeks after the cells reached a confluent state, the cells were washed with PBS, fixed with neutrally buffered formalin and stained with alizarin red S (Wako Pure Chemical Industries).

MC3T3 cells [3] = assay: Calcification product forming ability of MC3T3 cells (Dahl's calcium staining); format: cell-based, mouse; settings: two weeks after confluent state
Protocol: To assess calcification ability of cells, Dahl's calcium staining was performed. The PDL cells were inoculated on a 24-well culture plate at a ratio of 5×10^3 cells/well, and cultured in 2S-containing DMEM added with the peptide (a) or (c) at various concentrations and adjusted by addition of 10 mM sodium β-glycerophosphate. […]
Further, the peptide (a), BMP2 and TGFβ were similarly examined by using the MC3T3 cells.

Sequence	cell differentiation promoting effect on ST2 cells relative to BMP2 (ST2 cells)	cell differentiation promoting effect (ALP activity) on ST2 cells (ST2 cells)	cell differentiation promoting effect on BMSSC cells relative to BMP2 [1]	cell differentiation promoting effect (ALP activity) on BMSSC cells [1]	cell differentiation promoting effect (ALP activity) on MC3T3 cells (MC3T3 cells [2])	cell differentiation promoting effect (ALP activity) on the MC3T3 cell strain (MC3T3 cells [2]; final concentration of 100 ng/ml, versus control (FIG. 12))	calcification ability of the PDL cells (PDL cells)	cell differentiation promoting effect (calcification) on MC3T3 cells (MC3T3 cells [3])	cell differentiation promoting effect (calcification) on MC3T3 cells relative to BMP2 (MC3T3 cells [3]; comparison with BMP2)
VPFFPQQSGTPGMASL [Peptide (b), peptide designed on the portion of human-derived sheathlin protein corresponding to (a)]	comparable to or higher than that of BMP2	significant cell differentiation promoting effect	comparable to or higher than that of BMP2	significant cell differentiation promoting effect	significant cell differentiation promoting effect	high cell differentiation promoting effect			
VPAFPRQPGTPGVASL [Peptide (a)]	comparable to or higher than that of BMP2	significant cell differentiation promoting effect	comparable to or higher than that of BMP2	significant cell differentiation promoting effect	significant cell differentiation promoting effect		significantly increased	significant cell differentiation promoting effect	comparable to or higher than that of BMP2
